# Calls of active or inactive are those of the source.
# What was measured:
# [1] = A Cell Based Secondary Assay To Explore Cytotoxicity of Compounds that Sensitize Mycobacterium Tuberculosis to Beta-Lactam Antibiotics.; type: functional
# [2] = molecular target: Prothrombin (Homo sapiens, UniProt P00734); test: Thrombin 1536 HTS Dose Response Confirmation. [Related pubchem assays: 1046 (Thrombin 1536 HTS; hits were confirmed in this assay)]; type: functional
# [3] = OVCAR-3 cell viability loss – plate reader, dry powder samples, PAX8 inhibitor project, dose response (AID 743044); type: functional, cell-based
# [4] = molecular target: Paired box protein Pax-8 (Homo sapiens, UniProt Q06710); test: PAX8 transcriptional activity inhibition in RMG-I – RMG-I cells, luciferase, cherry-pick, dose response (AID 687027); type: functional, cell-based;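 further: luciferase reporter driven by Pax8 target thyroperoxidase promoter measured by SteadyGlo luminescence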
# [5] = cells; type: functional
# [6] = HEK-293T viability loss after treatment – luminescence, T-cell screen hits, cytotoxicity control for TCR NF-kB inhibitor project, dose response (AID 489026); type: functional, cell-based;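 further: cells exposed to compound about 14 hours before the viability readout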
# [7] = molecular target: T1, Aminopeptidase N (Plasmodium falciparum FcB1/Columbia, UniProt O96935); test: malaria alanyl aminopeptidase activity blockers – biochemical, fluorogenic H-Leu-NHMec substrate, 1536-well (AID 1445); parameters: species or system Plasmodium falciparum 3D7, 3D7
# T1 sequence (O96935 whole entry): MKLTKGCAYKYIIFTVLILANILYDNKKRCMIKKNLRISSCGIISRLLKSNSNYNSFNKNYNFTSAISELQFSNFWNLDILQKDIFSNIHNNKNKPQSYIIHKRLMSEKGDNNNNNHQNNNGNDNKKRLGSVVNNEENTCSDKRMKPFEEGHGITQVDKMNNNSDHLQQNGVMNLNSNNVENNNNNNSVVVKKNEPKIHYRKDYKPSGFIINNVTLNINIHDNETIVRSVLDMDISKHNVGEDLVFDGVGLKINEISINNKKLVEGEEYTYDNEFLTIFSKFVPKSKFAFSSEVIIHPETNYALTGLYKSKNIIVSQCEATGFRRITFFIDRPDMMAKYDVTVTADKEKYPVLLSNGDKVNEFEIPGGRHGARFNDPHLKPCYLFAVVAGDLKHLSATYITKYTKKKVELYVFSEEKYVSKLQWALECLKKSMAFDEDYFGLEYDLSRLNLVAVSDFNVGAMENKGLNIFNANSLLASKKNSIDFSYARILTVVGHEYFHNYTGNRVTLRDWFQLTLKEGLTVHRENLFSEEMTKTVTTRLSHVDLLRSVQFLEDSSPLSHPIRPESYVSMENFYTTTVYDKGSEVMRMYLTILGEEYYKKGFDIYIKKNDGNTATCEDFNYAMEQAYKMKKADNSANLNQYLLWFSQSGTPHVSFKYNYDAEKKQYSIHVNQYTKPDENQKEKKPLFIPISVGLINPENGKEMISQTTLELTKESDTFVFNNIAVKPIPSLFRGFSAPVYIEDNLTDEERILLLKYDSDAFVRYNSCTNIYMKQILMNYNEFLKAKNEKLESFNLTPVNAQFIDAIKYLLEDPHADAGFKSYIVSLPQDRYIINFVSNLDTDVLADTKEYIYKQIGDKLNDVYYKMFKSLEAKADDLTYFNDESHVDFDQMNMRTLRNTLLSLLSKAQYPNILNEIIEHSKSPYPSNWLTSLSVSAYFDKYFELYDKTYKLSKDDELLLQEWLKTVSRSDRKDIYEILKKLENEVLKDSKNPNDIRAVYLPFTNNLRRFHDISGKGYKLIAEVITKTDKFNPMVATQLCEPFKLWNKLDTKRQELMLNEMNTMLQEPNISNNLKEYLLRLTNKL
# [8] = molecular target: T2, Long-chain-fatty-acid--AMP ligase FadD28 (Mycobacterium tuberculosis, UniProt P9WQ59); test: Fluorescence polarization aasay to screen for inhibitors that compete for the binding of FadD28 to a bisubstrate Measured in Biochemical System Using Plate Reader - 2147-01_Inhibitor_Dose_CherryPick_Activity.; type: functional, Mycobacterium tuberculosis H37Rv
# T2 sequence (P9WQ59 whole entry): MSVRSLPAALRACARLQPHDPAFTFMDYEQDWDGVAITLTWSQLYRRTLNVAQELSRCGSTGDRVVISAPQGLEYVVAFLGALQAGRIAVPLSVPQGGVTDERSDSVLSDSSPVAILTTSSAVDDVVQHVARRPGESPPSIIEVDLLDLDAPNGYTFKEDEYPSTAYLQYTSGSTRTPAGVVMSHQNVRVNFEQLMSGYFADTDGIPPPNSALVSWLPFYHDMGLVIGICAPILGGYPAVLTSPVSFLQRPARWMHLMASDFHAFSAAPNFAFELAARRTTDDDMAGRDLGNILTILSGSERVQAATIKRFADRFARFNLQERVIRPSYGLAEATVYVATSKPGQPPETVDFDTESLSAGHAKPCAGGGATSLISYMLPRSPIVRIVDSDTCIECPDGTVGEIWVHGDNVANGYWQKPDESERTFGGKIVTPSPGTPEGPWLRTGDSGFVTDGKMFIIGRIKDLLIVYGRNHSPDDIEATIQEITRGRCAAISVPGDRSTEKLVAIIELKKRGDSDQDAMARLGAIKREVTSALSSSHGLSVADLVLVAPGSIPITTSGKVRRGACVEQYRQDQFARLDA
# [9] = molecular target: T3, Calpain-2 catalytic subunit (Sus scrofa, UniProt P43367); test: m-calpain protease blockers, concentration series – biochemical, fluorogenic peptide substrate, dose response (AID 1420); type: functional
# T3 sequence (P43367 whole entry): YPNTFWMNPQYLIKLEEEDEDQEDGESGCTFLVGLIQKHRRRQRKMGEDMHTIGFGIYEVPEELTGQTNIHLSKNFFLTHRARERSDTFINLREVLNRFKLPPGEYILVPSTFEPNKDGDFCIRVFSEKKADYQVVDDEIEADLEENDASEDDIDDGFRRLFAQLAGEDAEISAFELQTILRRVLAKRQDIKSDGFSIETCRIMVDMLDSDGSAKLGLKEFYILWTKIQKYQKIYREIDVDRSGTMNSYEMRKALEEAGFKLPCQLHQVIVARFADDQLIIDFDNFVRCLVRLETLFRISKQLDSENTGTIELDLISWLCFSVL
# [10] = microbe, parasite or virus in culture; type: functional; settings: Mycobacterium tuberculosis
# [11] = test system: INS1; test: INS-1E survival protection against cytokine death – cell-based, luminescence, retest, dose response (AID 449756); type: functional; settings: Rattus norvegicus;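 further: cell death triggered by IL-1 beta plus TNF-alpha plus IFN-gamma mixture; protective hits raise ATP signal compared with cytokine alone wells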
# [12] = viability of HCT116 lacking mutant beta-catenin – cell-based, human colon tumor, dose response (AID 1045); type: functional;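 further: HCT116 colon tumor cells with beta catenin knocked out; cells exposed to compound for 60 hours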
# [13] = viability of PTEN-deleted HCT116 cells – cell-based, HCT116 PTEN knockout, dose response (AID 1047); type: functional;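 further: HCT116 colon tumor cells with PTEN knocked out; cells exposed to compound for 60 hours before readout; potency for loss of cell viability measured by luminescence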
# [14] = test system: H4; test: Luminescence Cell-Based Dose Response HTS to Identify Activators of 5'UTR Stem-Loop Driven Prion Protein mRNA Translation in H4 Neuroglioblastoma Cells. [Related pubchem assays: 1829 (Project Summary), 1814 (Primary HTS)]; type: functional; settings: Homo sapiens
# [15] = Luminescence Cell-Based Dose Response HTS to Identify Activators of Luciferase Translation or Activity in H4 […] Cells. [Related pubchem assays: 1829 (Project Summary), 1814 (Primary HTS)]; type: functional
# [16] = Luminescence Cell-Based Dose Confirmation HTS to Identify Activators of 5'UTR Stem-Loop Driven Alpha-Synuclein mRNA Translation in H4 Neuroglioblastoma Cells. [Related pubchem assays: 1829 (Project Summary), 1814 (Primary HTS)]; type: functional
# [17] = molecular target: Nonstructural protein 1 (Influenza A virus, UniProt Q194T2); type: functional, Influenza A virus (A/California/07/2009(H1N1))
# [18] = molecular target: T4, RNA-binding protein pos-1 (Caenorhabditis elegans, UniProt G5EF15); test: disruptors of C. elegans POS-1 RNA interaction – biochemical, fluorescence polarization, dose response (AID 1964);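 further: purified POS-1 fused to maltose binding protein made in E. coli; potency of compounds blocking POS-1 binding to fluorescent RNA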
# T4 sequence (G5EF15 whole entry): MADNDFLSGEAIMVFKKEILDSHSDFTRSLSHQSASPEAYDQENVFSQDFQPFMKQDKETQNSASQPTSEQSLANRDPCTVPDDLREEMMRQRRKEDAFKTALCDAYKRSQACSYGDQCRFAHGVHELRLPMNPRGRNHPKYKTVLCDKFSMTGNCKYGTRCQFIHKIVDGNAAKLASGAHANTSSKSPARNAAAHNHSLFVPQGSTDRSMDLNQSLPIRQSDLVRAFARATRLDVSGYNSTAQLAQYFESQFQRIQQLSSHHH
# [19] = molecular target: T5, Zinc finger protein mex-5 (Caenorhabditis elegans, UniProt Q9XUB2); test: potency of MEX-5 RNA-binding blockers – biochemical, C. elegans, fluorescence polarization, dose response (AID 1960)
# T5 sequence (Q9XUB2 whole entry): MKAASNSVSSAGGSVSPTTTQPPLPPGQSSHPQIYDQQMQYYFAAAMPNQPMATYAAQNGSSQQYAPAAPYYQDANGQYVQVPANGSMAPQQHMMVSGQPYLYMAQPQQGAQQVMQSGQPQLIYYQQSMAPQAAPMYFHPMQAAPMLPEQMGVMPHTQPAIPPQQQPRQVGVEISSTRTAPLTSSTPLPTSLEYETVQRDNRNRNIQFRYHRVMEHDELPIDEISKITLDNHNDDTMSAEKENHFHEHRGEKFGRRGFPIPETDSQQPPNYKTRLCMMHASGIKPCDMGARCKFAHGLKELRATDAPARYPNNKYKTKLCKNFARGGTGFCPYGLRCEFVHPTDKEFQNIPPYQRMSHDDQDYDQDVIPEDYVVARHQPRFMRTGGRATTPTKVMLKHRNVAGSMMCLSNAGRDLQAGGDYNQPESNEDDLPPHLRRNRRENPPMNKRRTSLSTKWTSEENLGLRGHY
# Sequence of Paired box protein Pax-8 (Q06710 whole entry): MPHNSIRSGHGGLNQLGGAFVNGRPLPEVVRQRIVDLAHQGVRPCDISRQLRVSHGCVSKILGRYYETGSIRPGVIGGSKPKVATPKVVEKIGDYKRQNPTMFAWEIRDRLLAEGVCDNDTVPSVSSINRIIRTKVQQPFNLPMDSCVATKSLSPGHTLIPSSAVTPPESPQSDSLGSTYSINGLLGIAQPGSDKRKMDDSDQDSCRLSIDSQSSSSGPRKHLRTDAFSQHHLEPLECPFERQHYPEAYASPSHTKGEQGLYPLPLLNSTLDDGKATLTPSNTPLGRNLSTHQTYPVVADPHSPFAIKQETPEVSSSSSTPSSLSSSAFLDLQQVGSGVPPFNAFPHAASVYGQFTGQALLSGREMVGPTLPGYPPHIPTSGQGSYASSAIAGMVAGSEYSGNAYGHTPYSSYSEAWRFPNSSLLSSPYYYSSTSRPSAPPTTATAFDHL
# Sequence of Nonstructural protein 1 (Q194T2 whole entry, the tested form may be a part): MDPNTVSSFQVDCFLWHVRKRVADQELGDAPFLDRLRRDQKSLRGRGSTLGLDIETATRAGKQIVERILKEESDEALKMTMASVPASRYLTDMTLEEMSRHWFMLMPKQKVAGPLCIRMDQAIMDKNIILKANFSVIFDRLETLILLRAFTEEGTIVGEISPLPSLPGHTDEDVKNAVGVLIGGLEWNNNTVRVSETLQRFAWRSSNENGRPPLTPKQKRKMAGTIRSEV
smiles,measurement,setting,value
COc1cccc(NS(=O)(=O)c2ccc3ncc(C(=O)NCCC(C)C)c(O)c3c2)c1,CC50,[1],> 40 µM (active)
COC(=O)Cc1ccc(NC(=S)N2CCN(c3ccc(F)cc3)CC2)cc1,IC50,[2],> 50 µM (not active)
CC(C)NC(=O)N(C)C[C@H]1OCCCC[C@H](C)Oc2ccc(NC(=O)Nc3ccc(C(F)(F)F)cc3)cc2C(=O)N([C@H](C)CO)C[C@@H]1C,AC50,[3],53.3 µM (active)
same,AC50,[4],12.5 µM (active)
Nc1nc(-c2cccnc2)nn1C(=O)c1ccc(Cl)cc1,IC50,[2],0.781 µM (active)
O=C(Nc1nc2ccccc2n1CCN1CCCC1)C1CCCCC1,CC50,[1],> 40 µM (active)
same,IC50,[5],46.9 µM (active)
Cc1ccc(OCc2nnc(S)n2N)cc1C,IC50,[2],> 50 µM (not active)
CC(C)Nc1nc(C#N)nc(NC(C)C)n1,IC50,[2],23 µM (active)
COc1cc(-c2noc(C)c2-c2ccc3[nH]ccc3c2)cc(OC)c1OC,IC50,[6],32.5 µM (inactive)
COc1cc(/C=N/NC(=O)C(Cc2c[nH]c3ccccc23)NC(=O)OCC(C)C)cc([N+](=O)[O-])c1O (stereo unspecified),IC50,[7],16.7 µM (active)
same,AC50,[8],65.6 µM (active)
CCCC(C)C1(CC)C(=O)N=C(Nc2ccccc2OC)NC1=O (stereo unspecified),IC50,[7],52.1 µM (active)
O=C(c1cccnc1)n1nc(-c2ccco2)nc1NCc1cccs1,IC50,[2],0.001 µM (active)
CCCCCCCNC1=CC(=O)CC(c2ccccc2)C1 (stereo unspecified),IC50,[9],9.58 µM (not active)
same,CC50,[10],38 µM (active)
same,AC50,[11],6.36 µM (active)
COc1ccc(-c2cc(-c3ccc(OC)cc3)nc(-c3ccc4c(c3)NC(=O)CO4)c2)cc1,CC50,[1],38.7 µM (active)
O=C(Nc1ccc2oc(-c3ccc(Cl)c(Cl)c3)nc2c1)c1nc[nH]n1,CC50,[1],16.4 µM (active)
same,EC50,[12],4.31 µM (active)
same,EC50,[13],3.34 µM (active)
CCCN1C(=O)/C(=C2\SC(N3CCCCC3)=NC2=O)c2ccccc21,EC50,[14],> 120 µM (not active)
same,EC50,[15],64.2 µM (active)
same,EC50,[16],15.2 µM (active)
same,IC50,[17],28.5 µM (active)
CN(C)CCCN(C(=O)/C=C/c1cccs1)c1nc2ccc(F)cc2s1,CC50,[1],12.4 µM (active)
same,EC50,[18],> 300 µM (not active)
same,EC50,[19],> 300 µM (not active)
CCN(CC)CCNC(=O)c1ccc(NC(=O)c2cn(-c3ccccc3)nc2-c2cccs2)cc1,CC50,[10],7.35 µM (active)
same,AC50,[11],6.79 µM (active)
COc1ccc(/C=C2\SC(=S)N(C(C(=O)O)c3ccccc3)C2=O)c(OC)c1 (stereo unspecified),IC50,[7],21.9 µM (active)

# From ChEMBL document CHEMBL1201862, “PubChem BioAssay data set” (2004)
